Data: article PMC12802956, “Dalbavancin dosing in a severely underweight person with prosthetic valve endocarditis: the critical role of proactive therapeutic drug monitoring” (Journal of Antimicrobial Chemotherapy, 2025)
Read-outs that look alike come from different tables or passages of the source.

Key:
[1] = Therapeutic drug monitoring of dalbavancin plasma concentrations (Cmin, Cmax) in a severely underweight patient; type: in vivo, human
Procedure: Following multidisciplinary consultation, a dosing regimen of dalbavancin 1000 mg administered on day 1 and day 8 was initiated. Subsequent dosing intervals were guided based on TDM results, assessing both minimum (Cmin, within 1 h before the injection) and maximum (Cmax, 30–60 min after the end of infusion) dalbavancin plasma concentrations, as previously described.[3],[4] Cmin and Cmax values were incorporated into log-linear regression models by plotting the logarithm of dalbavancin plasma concentrations against time, to estimate individualized timing of subsequent doses, with the aim of maintaining Cmin levels above 8 mg/L (based on a breakpoint MIC of […]).[3–7],[9]
The quantification of dalbavancin plasma concentrations was performed using a previously validated liquid chromatography–tandem mass spectrometry method.[10] The volume of distribution was estimated as the ratio between the dalbavancin dose and the mean Cmax concentration. Written informed consent for all medical procedures and interventions performed in accordance with clinical practice was obtained from the patient.

[2] = system: Corynebacterium striatum; assay: Clinical course of prosthetic aortic valve infective endocarditis under dalbavancin therapy; type: in vivo, human; details: single patient
Excerpt: (§1) We report the case of a patient who required initiation of dalbavancin therapy in November 2024 for infective endocarditis of a biological aortic valve (replaced April 2024) caused by Corynebacterium striatum. […] Due to a high surgical risk, the patient was deemed ineligible for repeat cardiac surgery.
The eighth dalbavancin dose was scheduled 50 days after the previous administration.

[3] = cited from earlier work
Excerpt: As a result, severely underweight patients may theoretically be at risk of drug overexposure when treated with the conventional 1 ...

[4] = Tolerability of earlier antibiotic therapy in the patient; type: in vivo, human; details: single patient, treatment before the start of dalbavancin
Excerpt: as §1

Compound	Cmin (minimum dalbavancin plasma concentration) ([1]; patient, 28-38 kg, 1000 mg on day 1 and day 8, then TDM-guided intervals, seven administrations over 217 days, sampled within 1 h before the injection, plasma, LC-MS/MS, at each TDM assessment)	volume of distribution, range ([1]; severely underweight patient (28-38 kg), dose/Cmax, range over the observation period) [L]	mean volume of distribution ([1]; severely underweight patient (28-38 kg), ratio between dalbavancin dose and mean Cmax (30-60 min after end of infusion), plasma LC-MS/MS, mean ± spread over administrations) [L]	volume of distribution (approximate, as discussed) ([1]; severely underweight patient, markedly reduced compared with reported values) [L]	PET scan finding ([2]; PET scan 6 months after initiation of dalbavancin therapy)	clinical status at last follow-up visit ([2]; last follow-up visit after seven dalbavancin administrations, negative inflammatory markers)	volume of distribution ([3]; normal-weight individuals) [L]	volume of distribution ([3]; obese individuals) [L]	volume of distribution ([3]; overweight individuals) [L]	tolerability in the patient [4]
CN[C@H]1C(=O)N[C@@H]2Cc3ccc(cc3)Oc3cc4cc(c3O[C@@H]3O[C@H](C(=O)O)[C@@H](O)[C@H](O)[C@H]3NC(=O)CCCCCCCCC(C)C)Oc3ccc(cc3Cl)[C@@H](O)[C@@H]3NC(=O)[C@H](NC(=O)[C@@H]4NC(=O)[C@@H](NC2=O)c2cc(cc(O)c2Cl)Oc2cc1ccc2O)c1ccc(O)c(c1)-c1c(O[C@H]2O[C@H](CO)[C@@H](O)[C@H](O)[C@@H]2O)cc(O)cc1[C@@H](C(=O)NCCCN(C)C)NC3=O [dalbavancin, Dalbavancin]	exceeded 8 mg/L	2.2 to 3.1	2.7 ± 0.4	2 to 3	stability of the infectious process	no fever or signs of systemic infection	3 to 4	6 to 7	4 to 5	
vancomycin										discontinued due to a cutaneous adverse reaction
